Data set [1] relates to 3th instar larvae of Bombyx mori. The settings on record: cited from earlier work; for LC50: 3th instar larvae.
For data set [2], the system named is mammalian NADH-ubiquinone reductase. The arrangement: method as in PMID 7925463. The conditions noted are these: relative to rotenone; cited from earlier work.
The test system of data set [3] is mitochondrial complex I of Cx. pipiens pallens. The data set is described as follows: Inhibition type and constants of mitochondrial complex I (enzyme-concentration plots, Lineweaver-Burk plots). It is filed as biochemical, Culex pipiens pallens. The conditions noted are these: for inhibition type: Lineweaver-Burk plots, NADH and endogenous ubiquinone as substrates; for reversibility of inhibition: enzyme activity vs enzyme concentration plots. From the text:
The inhibition effect on the mitochondrial complex I by amorphigenin and rotenone was also studied. […] The plots yielded straight lines passing through the origin.
The inhibitory kinetics of the mitochondrial complex I by amorphigenin and rotenone were studied by Lineweaver–Burk plots. […] Under the experimental conditions employed, the oxidative reaction of NADH by the mitochondrial complex I followed Michaelis–Menten kinetics. The double-reciprocal plots yielded a family of straight lines with different slopes and intercepts but they intersected one another in the second quadrant. […] Equilibrium constants for inhibitor binding with the free enzyme (KI) and with the enzyme-substrate complex (KIS) can be calculated according to the Foumulations (1) and (2) based on the slope and the vertical intercept against the concentration of inhibitors in Figure 3, respectively. (1) Slope=Ks/Vm(1+[I]/KI) (2) Intercept=1/Vm(1+[I]/KIS)
Different concentrations of NADH were incubated with the mitochondria and assay buffer to examine the enzyme kinetics of NADH with and without the addition of various concentrations of rotenoids. The inhibition type of the compounds on the enzyme was assayed by Lineweaver-Burk plots. The inhibition constant was determined by plots of the apparent 1/Vm or Km/Vm versus concentration of the inhibitor [40, 58].

For data set [4] the test system is unchanged. The data set is described as follows: In vitro inhibition of mitochondrial complex I activity (NADH oxidation at 340 nm, isolated larval mitochondria). The settings on record: NADH substrate; for IC50: isolated mitochondria, read-out: IC50 (μmol/L), in vitro. It is filed as biochemical, Culex pipiens pallens. The method, then:
The mitochondria of the fourth instar larvae of Cx. pipiens pallens were isolated according to the method of Akbar et al. with suitable modifications. The larvae were washed in a cold extraction medium (0.25 M sucrose solution containing 0.25% defatted BSA), then homogenized in a Potter–Elvehjem homogenizer under cold conditions. The homogenate was filtered through a moist muslin cloth and the filtrate centrifuged at 1000× g for 15 min at 4 °C. The residue was re-suspended in the extraction medium and centrifuged at 1000× g for 15 min at 4 °C. The supernatants from both centrifugations were combined and centrifuged at 12,000× g for 15 min at 4 °C. The mitochondrial pellet was re-suspended in the extraction medium, and stored at −80 °C until used. The protein concentration was determined by Smith’s method using BSA as the standard.
The mitochondrial complex I activity of Cx. pipiens pallens was determined as described by Birch-Machin et al. with adaptations for a 96-well format. It is well known that the mitochondrial complex I has two substrates, NADH and ubiquinone. […] The activity was measured by following the decrease in absorbance due to the oxidation of NADH at 340 nm with 425 nm as the reference wavelength. In brief, 20 μL of mitochondria and 160 μL of assay buffer containing 25 mM phosphate buffer (pH 7.2), 5 mM MgCl2, 2 mM NaN3 and 2.5 mg/mL BSA were added to each well of the 96-well plate, then the microplate was incubated for 20 min at 37 °C in a microplate reader (Spectramax 190 plate reader; Molecular Devices, Sunnyvale, CA, USA). Finally, the reaction was initiated by the addition of 10 μL of 0.13 mM NADH and measured for 5 min.
For the assay of in vitro inhibition of the mitochondrial complex I activities, 10 μL of different concentrations each of amorphigenin and rotenone were prepared in alcohol and diluted in 25 mM phosphate buffer (pH 7.2), then mixed with 10 μL of the mitochondria. The enzyme activity was immediately determined by the method as described above. For negative controls, 10 μL of 25 mM phosphate buffer (pH 7.2) instead of amorphigenin or rotenone were used in the assays. The inhibitory extent of the compounds was expressed as the inhibitor concentrations leading to 50% of the enzyme activity reduction (IC50).
Applying Microsoft Excel 2003 software (Microsoft, Redmond, WA, USA), the average enzyme activitie results, adjusted by Abbott, were subjected to probit analysis to calculate IC50 and correlation coefficient.

For data set [5], the system named is larvae of Culex pipiens pallens. Details: method as in PMID 25690287. The conditions noted are these: cited from earlier work.
The subject of data set [6] is bovine heart mitochondrial complex I. The settings on record: cited from earlier work.
In data set [7] the test system is mitochondrial complex I of Cx. pipiens pallens. The data set is described as follows: In vivo inhibition of mitochondrial complex I activity (fourth-instar larvae exposed 24 h, then mitochondria isolated). The arrangement: species or system Culex pipiens pallens. The settings on record: for decrease of mitochondrial complex I activity compared with control: 24 h.
In data set [8] the test system is acetylcholinesterase enzyme. The arrangement: method as in doi:10.1016/j.pestbp.2011.12.002. The conditions noted are these: cited from earlier work.
For data set [9], the system named is mitochondrial complex I prepared from a pig's heart. The arrangement: method as in doi:10.1016/S0926-6593(65)80060-1. The settings on record: cited from earlier work.
The test system of data set [10] is mitochondrial complex I from submitochondrial particles of blow fly flight-muscle. The arrangement: method as in doi:10.1016/S0960-894X(00)80645-9. The conditions noted are these: cited from earlier work.
For data set [11], the system named is NADH-ubiquinone reductase of bovine heart submitochondrial particles. The arrangement: method as in PMID 7925463. The conditions noted are these: against exogenous quinine DB and DPB; cited from earlier work.
Details of data set [12]: method as in earlier work. The settings on record: summer sunlight; cited from earlier work.
Data set [13] has as its system fourth instar larvae of A. aegypti. Details: method as in doi:10.1016/S0031-9422(00)83185-4. The settings on record: 10 ppm; cited from earlier work.

We go through eight compounds from article PMC4581321, “Inhibitory Effects of Amorphigenin on the Mitochondrial Complex I of Culex pipiens pallens Coquillett (Diptera: Culicidae)” (International Journal of Molecular Sciences, 2015).

≈ marks a conversion by molar mass, not a printed value. Where two headings read alike, the source gives them in different places.

Regarding `C=C(C)[C@@H]1Cc2c(ccc3c2O[C@@H]2COc4cc(OC)c(OC)cc4[C@@H]2C3=O)O1` [5′β- epirotenone], the LC50 in [1] was 225.70 µg/mL (≈ 572 µM). In data set [1] (relative to rotenone), the “times less toxic than rotenone” value is listed as “about 24 times”. Moreover, the “times less inhibiting than rotenone” value in [2] is on record as “about 1000 times”.
Turning to `C=C(CO)[C@H]1Cc2c(ccc3c2O[C@@H]2COc4cc(OC)c(OC)cc4[C@@H]2C3=O)O1` [Amorphigenin], the inhibition type entry in data set [3] is recorded as “mixed-I type”. Moreover, the reversibility of inhibition result in data set [3] is reported as “reversible”. Further, the “decrease of mitochondrial complex I activity compared with control” value is 27.38% in [4] (2 μmol/L); 50.00% in [4] (3 μmol/L); 70.24% in [4] (4 μmol/L); 1.52 fold in [7] (1.25 μmol/L, NADH substrate); 1.78 fold in data set [7] (2.5 μmol/L, NADH substrate); 2.43 fold in data set [7] (5 μmol/L, NADH substrate). Moreover, the IC50 amounted to 2.86 µmol/L in [4] and 2.43 µmol/L in [7] (fourth-instar larvae exposed 24 h, NADH substrate, read-out: IC50 (μmol/L), in vivo). Also, the “LC50, larvicidal activity” value in [5] was 4.29 µg/mL (≈ 10.5 µM). The “LC90, larvicidal activity” value in data set [5] was 11.27 µg/mL (≈ 27.5 µM). The “inhibitory potency compared with rotenone” value in [6] is “comparable with rotenone”.
As for `Cc1ccc(C(C)C)cc1O` [Carvacrol, carvacrol], the “inhibition of acetylcholinesterase enzyme” value in data set [8] (house flies, ticks and cockroaches) is reported as “slight inhibition”; in data set [8] (mosquito), “did not inhibit”.
On to `C=C(C)[C@@H]1CCC2=CC(=O)C[C@@H](C)[C@]2(C)C1` [Nootkatone, nootkatone], for which the “inhibition of acetylcholinesterase enzyme” value in data set [8] (any of the four arthropod models tested) was “did not inhibit”.
For the compound `C=C(C)[C@H]1Cc2c(ccc3c2O[C@@H]2COc4cc(OC)c(OC)cc4[C@@H]2C3=O)O1` [Rotenone, reference compound], the results for the inhibition type entry in [3], in [10] and in data set [11] were “mixed-I type”, “reversible competitive inhibitor” and “noncompetitive”, respectively. In data set [3], the reversibility of inhibition entry was “reversible”. For the same compound, the LC50 in data set [1] was 9.33 µg/mL (≈ 23.7 µM). The “in vitro IC50” value in [9] was 1.8 × 10^−5 μmol/mg protein. In addition, the “decrease of mitochondrial complex I activity compared with control” value in [4] (3 μmol/L) is given as “significantly decreased”; in data set [4] (4 μmol/L), “significantly decreased”; in data set [7] (1.25 μmol/L, NADH substrate), 1.45 fold; in [7] (2.5 μmol/L, NADH substrate), 1.77 fold; in data set [7] (5 μmol/L, NADH substrate), 2.41 fold. The IC50 worked out at 3.14 µmol/L in [4] and 2.52 µmol/L in data set [7] (read-out: IC50 (μmol/L), in vivo, fourth-instar larvae exposed 24 h, NADH substrate). Also, the “time until all toxicity is lost” value in data set [12] is 2 to 3 days.
Consider `C=C(C)C1Cc2c(ccc3c2OC2COc4cc(OC)c(OC)cc4C2C3O)O1` (stereo not shown) [rotenone reduced with NaBH4], for which the “in vitro IC50” value in data set [9] is 2.0 × 10^−5 μmol/mg protein.
With amorphigenin 8′-β-glucoside, in data set [13], the “loss of the fourth instar larvae” value is reported as 85% and the pupae formation entry is given as “without the formation of pupae”.
Consider arylazidoamorphigenin, for which the “inhibitory potency compared with rotenone” value in data set [6] is “comparable with those of rotenone”.

One may read the LC50 as the concentration that kills 50% of the test population.
